# Experiments:
# H3K27ac = assay: Western blotting of H3K27ac in treated NB cells; format: cell-based, human; conditions: Kelly cells, 24 h
# Procedure: Cells growing in culture were lysed for whole cell lysates as described in Durbin et al. Nat. Genet. 50:1240-1246 (2018) and Wang et al. Nat. Commun. 10:5622 (2019). Nuclear lysates were prepared using the NE-PER® nuclear lysate kit (Thermo Scientific™) according to the manufacturer's protocol. Chromatin lysates were prepared with the total histone extraction kit (Epigentek). Briefly, equivalent amounts of protein were resolved by western blotting using 4-12% Bis-Tris NuPAGE™ gels (Thermo-Fisher Scientific) prior to transfer, and immunoblotting using primary antibodies to: MYCN (1:1000, Cell Signaling Technology®), H3K27ac (1:1000, Abcam), total H3 (1:1000, Cell Signaling Technology®), EP300 (1:1000, Abcam), CBP (1:500, Cell Signaling Technology®), Cas9 (1:1000, Cell Signaling Technology®), cleaved-PARP1 (1:1000, Cell Signaling Technology), cleaved Caspase-3 (1:1000, Cell Signaling Technology®), β-actin (1:1000, Cell Signaling Technology®), GATA3 (1:1000, EMD Millipore™), TFAP2β (1:1000, Cell Signaling Technology®), Vinculin (1:1000, EMD Millipore™), CRBN (1:1000, Cell Signaling Technology®), HAND2 (1:1000, Santa Cruz Biotechnology). Secondary antibodies were horseradish peroxidase (HRP)-conjugated anti-rabbit or anti-mouse (1:5000, Santa Cruz Biotechnology), incubated prior to exposure to enhanced chemiluminescence reagents (GE, Amersham). For immunoprecipitation, equal amounts of protein were diluted in buffer C as described in Mansour et al. Science 346:1373-1377 (2014) and incubated with antibodies covalently conjugated to Dynabeads™ M-270 beads (Thermo-Fisher Scientific) overnight according to the manufacturer's directions. Antibodies used included: H3K27ac, EP300 (Abcam), CBP, TFAP2β (Cell Signaling Technology®), rabbit immunoglobulin G (IgG) (Santa Cruz Biotechnology®). Immunoprecipitated protein was isolated as per the manufacturer's directions and subjected to western blotting, as described above, or mass spectrometry.
# [1] = tested on: super-enhancer regulated and CRC genes; assay: ERCC spike-in RNA-seq of xenograft tumor cells; format: in vivo, human
# Text: For in vivo analyses, tumors were removed from animals treated with either vehicle […] to filtering for single cells through a […] filter. Single cell suspensions were then solubilized in TRIzol™ (Ambion) as described above, with processing, including ERCC RNA spike in controls, treatment with RNAse-free DNAse I, and spin purification. Following preparation, there was sufficient material to proceed with RNAseq analysis for four vehicle control and three JQAD1 treated tumor specimen. Purified RNA samples were subjected to library construction with a low input RNA protocol followed by poly-adenylation preparation and sequencing using the Illumina NextSeq® 500 (paired end, 75 bp reads). Raw reads for RNA-seq of in vivo models were aligned first using hisat2 v2.1 in paired-end mode against the mm9 revision of the mouse genome to filter out contaminating mouse reads. Remaining reads were aligned to a reference genome containing the hg19 revision of the human reference and the sequences of ERCC spike-in probes. Expression was quantified using sorted BAMs, a gene reference built using ERCC sizes and RefSeq genes downloaded Jul. 15, 2017, and htseq-count with parameters -I gene_id -stranded=reverse -f bam -m intersection-strict. Read counts were converted to transcripts per million (TPM) and used for cell number-normalization. […]
# EP300 = target: T1, EP300 (Mus musculus, UniProt B2RWS6); assay: Immunohistochemistry of EP300 in liver of Crbn ILE391VAL knockin mice; format: in vivo; conditions: 40 mg/Kg IP daily, 14 days
# T1 construct: from tissue; host or cells: liver of Balb/c Crbn^ILE391VAL knock-in mice
# T1 sequence (B2RWS6 whole entry): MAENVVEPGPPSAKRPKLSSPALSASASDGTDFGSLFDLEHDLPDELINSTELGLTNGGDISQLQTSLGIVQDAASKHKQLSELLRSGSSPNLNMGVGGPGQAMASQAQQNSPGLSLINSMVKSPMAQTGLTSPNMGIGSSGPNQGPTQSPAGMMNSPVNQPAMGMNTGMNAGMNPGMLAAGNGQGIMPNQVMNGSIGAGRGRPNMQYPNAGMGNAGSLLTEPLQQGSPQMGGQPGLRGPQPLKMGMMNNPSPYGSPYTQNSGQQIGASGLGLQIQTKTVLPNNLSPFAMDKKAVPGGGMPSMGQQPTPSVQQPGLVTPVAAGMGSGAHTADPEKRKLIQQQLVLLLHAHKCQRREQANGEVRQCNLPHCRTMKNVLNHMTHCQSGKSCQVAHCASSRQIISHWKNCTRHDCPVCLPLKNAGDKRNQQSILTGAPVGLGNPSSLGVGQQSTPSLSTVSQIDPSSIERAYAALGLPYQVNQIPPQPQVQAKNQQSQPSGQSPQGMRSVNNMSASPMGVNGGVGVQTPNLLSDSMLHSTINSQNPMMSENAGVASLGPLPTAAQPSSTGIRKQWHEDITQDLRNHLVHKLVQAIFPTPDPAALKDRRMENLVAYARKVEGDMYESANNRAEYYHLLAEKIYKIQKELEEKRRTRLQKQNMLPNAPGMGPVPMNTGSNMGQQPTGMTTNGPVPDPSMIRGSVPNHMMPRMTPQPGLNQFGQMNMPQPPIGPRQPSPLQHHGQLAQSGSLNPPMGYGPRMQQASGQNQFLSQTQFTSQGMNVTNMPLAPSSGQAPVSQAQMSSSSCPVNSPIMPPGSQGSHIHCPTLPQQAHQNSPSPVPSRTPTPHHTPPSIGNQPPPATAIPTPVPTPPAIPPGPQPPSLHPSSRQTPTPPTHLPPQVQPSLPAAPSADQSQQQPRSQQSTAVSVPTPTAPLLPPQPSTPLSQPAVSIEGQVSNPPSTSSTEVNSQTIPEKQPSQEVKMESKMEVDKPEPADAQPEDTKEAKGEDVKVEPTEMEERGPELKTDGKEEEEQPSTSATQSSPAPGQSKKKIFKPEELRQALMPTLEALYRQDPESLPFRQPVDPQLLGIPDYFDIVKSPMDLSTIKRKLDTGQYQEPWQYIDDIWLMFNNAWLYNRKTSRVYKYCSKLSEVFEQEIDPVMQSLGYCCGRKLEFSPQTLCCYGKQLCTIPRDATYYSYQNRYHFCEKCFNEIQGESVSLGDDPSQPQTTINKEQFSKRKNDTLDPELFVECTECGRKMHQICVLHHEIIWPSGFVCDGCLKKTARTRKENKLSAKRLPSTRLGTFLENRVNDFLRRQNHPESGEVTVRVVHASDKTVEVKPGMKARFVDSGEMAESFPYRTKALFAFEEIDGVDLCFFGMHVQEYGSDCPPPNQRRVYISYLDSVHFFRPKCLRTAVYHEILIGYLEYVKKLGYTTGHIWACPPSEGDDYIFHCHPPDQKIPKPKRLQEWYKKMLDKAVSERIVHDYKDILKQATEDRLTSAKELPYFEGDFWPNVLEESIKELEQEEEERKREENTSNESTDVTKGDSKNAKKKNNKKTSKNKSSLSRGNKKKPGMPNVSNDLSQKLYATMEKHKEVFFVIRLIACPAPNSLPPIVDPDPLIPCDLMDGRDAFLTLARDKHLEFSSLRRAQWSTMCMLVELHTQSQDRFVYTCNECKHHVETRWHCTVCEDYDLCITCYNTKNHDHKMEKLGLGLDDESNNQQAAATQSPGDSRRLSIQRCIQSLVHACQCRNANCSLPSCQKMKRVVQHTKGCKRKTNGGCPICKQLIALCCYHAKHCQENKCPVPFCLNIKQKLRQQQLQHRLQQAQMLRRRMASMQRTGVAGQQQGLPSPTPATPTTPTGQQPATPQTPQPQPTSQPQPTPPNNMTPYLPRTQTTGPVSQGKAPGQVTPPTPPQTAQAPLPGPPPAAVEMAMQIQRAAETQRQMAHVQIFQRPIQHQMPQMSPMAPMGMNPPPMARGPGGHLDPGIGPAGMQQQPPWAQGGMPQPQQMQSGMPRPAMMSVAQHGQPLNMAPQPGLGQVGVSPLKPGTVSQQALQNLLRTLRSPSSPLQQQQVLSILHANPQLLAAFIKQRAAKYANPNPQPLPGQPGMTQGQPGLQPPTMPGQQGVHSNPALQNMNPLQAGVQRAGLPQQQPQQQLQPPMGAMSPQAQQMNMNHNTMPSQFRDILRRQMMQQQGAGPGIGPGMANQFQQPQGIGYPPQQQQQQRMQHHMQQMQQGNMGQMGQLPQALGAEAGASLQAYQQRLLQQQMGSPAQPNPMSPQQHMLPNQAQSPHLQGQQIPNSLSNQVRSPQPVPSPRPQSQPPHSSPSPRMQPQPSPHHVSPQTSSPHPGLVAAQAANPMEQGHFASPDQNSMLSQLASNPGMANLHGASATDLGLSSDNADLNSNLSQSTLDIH
# Procedure: For toxicity studies, four female CD1 mice (Charles River Laboratories) were injected intraperitoneally (IP) with single doses of 10 mg/Kg (R,S)-JQAD1 solubilized in 10% hydroxypropyl β-cyclodextrin (Sigma-Aldrich®) in sterile water. Following injection, blood concentration of (R,S)-JQAD1 was measured by serial measurements of animal serum at time points out to 24 h, by liquid chromatography with tandem mass spectrometry (LC-MS/MS) analysis. Pharmacokinetics were performed at ChemPartner in Shanghai, China, using LC-MS/MS method and pharmacokinetics parameters (Tmax, Cmax, T1/2, AUC, etc.) calculated with WinNonlin® V 6.2 statistics software (Pharsight Corporation) using a noncompartmental model. For maximally tolerated dose (MTD) testing, six female CD1 mice were treated with daily IP doses of (R,S)-JQAD1 at 10, 20, or 40 mg/kg. Animals were monitored for animal weight, grooming and behavior daily without noted effects. […] Animal weights, behavior and grooming were monitored daily, for a total of 21 days. […] Blood samples were obtained by retro-orbital puncture and blood analyzed at the Small Animal Imaging Facility at Beth Israel Deaconess Medical Center (Boston, MA), on a Hemavet® 9500FS (Drew Scientific) for blood counts, creatinine, AST, ALT, ALP, GGTP, and BUN measurements. […]
structure (smiles),measurement,setting,value
"C[C@H](N(Cc1ccc(F)cc1)C(=O)CN1C(=O)O[C@@]2(CCc3cc(NC(=O)CCCCCCCCCCCNc4ccc5c(c4)C(=O)N(C4CCC(=O)NC4=O)C5=O)ccc32)C1=O)C(F)(F)F (stereo partly drawn) [JQAD1, 12-((2-(2,6-dioxopiperidin-3-yl)-1,3-dioxoisoindolin-5-yl)amino)-N-((R)-3′-(2-((4-fluorobenzyl)((S)-1,1,1-trifluoropropan-2-yl)amino)-2-oxoethyl)-2′,4′-dioxo-2,3-dihydrospiro[indene-1,5′-oxazolidin]-5-yl)dodecanamide]",H3K27ac modification,H3K27ac,parallel loss of the H3K27ac modification
same,H3K27ac modification,"H3K27ac; listed as (R,S)-JQAD1",suppressed both H3K27ac and EP300 expression levels
same,expression of CRC genes and MYCN in tumors,[1]; 40 mg/Kg daily for 14 days,among the most downregulated genes
same,RNA expression of super-enhancer versus typical-enhancer regulated genes in tumor cells,"[1]; 40 mg/Kg once daily, p<0.0001",preferential downregulation of genes regulated by super-enhancers compared with those regulated by typical enhancers
same,EP300 protein expression in liver,EP300,reduced EP300 protein expression levels in the liver cell nuclei
